According to ChEMBL document CHEMBL3813694, “Combined dual effect of modulation of human neutrophils' oxidative burst and inhibition of colon cancer cells proliferation by hydroxycinnamic acid derivatives” (Bioorg Med Chem, 2016):
pIC50: −log10 of the molar value. Each block holds one compound with its values, some of them ahead of it. Activity calls are given as the source filed them. The calls are words filed in the database; no cut-off is given here.

Experiments:
WiDr [1] = assay: Cytotoxicity against human WiDr cells assessed as reduction in cell proliferation after 24 hrs by sulforhodamine B assay; type: functional, cell-based
WiDr [2] = assay: Cell cycle arrest in human WiDr cells assessed as accumulation at S phase at 50 uM after 48 hrs by propidium iodide/RNase staining based flow cytometry relative to control; type: functional
WiDr [3] = assay: Cytotoxicity against human WiDr cells assessed as reduction in cell viability at 50 uM after 48 hrs by annexin V/propidium iodide dual staining based flow cytometry relative to control; type: functional
WiDr [4] = assay: Induction of superoxide anion radical production in human WiDr cells after 48 hrs by dihydroethidium probe based flow cytometry; type: functional, cell-based
C2BBe1 [5] = assay: Induction of superoxide anion radical production in human C2BBe1 cells after 48 hrs by dihydroethidium probe based flow cytometry; type: functional, cell-based
C2BBe1 [6] = assay: Cytotoxicity against human C2BBe1 cells assessed as reduction in cell proliferation after 72 hrs by sulforhodamine B assay; type: functional, cell-based; settings: C2BBe1, 72 h
WiDr [7] = assay: Cytotoxicity against human WiDr cells assessed as reduction in cell proliferation after 48 hrs by sulforhodamine B assay; type: functional, cell-based
C2BBe1 [8] = assay: Cell cycle arrest in human C2BBe1 cells assessed as accumulation at G2/M phase at 50 uM after 48 hrs by propidium iodide/RNase staining based flow cytometry relative to control; type: functional
WiDr [9] = assay: Cell cycle arrest in human WiDr cells assessed as accumulation at pre-G1 phase at 50 uM after 48 hrs by propidium iodide/RNase staining based flow cytometry; type: functional
WiDr [10] = assay: Induction of superoxide anion radical production in human WiDr cells at 50 uM after 48 hrs by dihydroethidium probe based flow cytometry relative to control; type: functional
WiDr [11] = assay: Cytotoxicity against human WiDr cells assessed as reduction in cell proliferation after 96 hrs by sulforhodamine B assay; type: functional, cell-based
WiDr [12] = assay: Cytotoxicity against human WiDr cells assessed as reduction in cell viability at 35 uM after 48 hrs by annexin V/propidium iodide dual staining based flow cytometry relative to control; type: functional
WiDr [13] = assay: Induction of hydrogen peroxide production in human WiDr cells at 35 to 50 uM after 48 hrs by DCFH2-DA probe based flow cytometry; type: functional, cell-based
C2BBe1 [14] = assay: Induction of glutathione production in human C2BBe1 cells at 50 uM after 48 hrs by mercury orange dye based flow cytometry relative to control; type: functional
[15] = Cytotoxicity against human neutrophils at 200 uM after 1 hr by trypan blue exclusion assay; type: cell-based; settings: neutrophil
WiDr [16] = assay: Induction of apoptosis in human WiDr cells assessed as early apoptotic cells at 35 to 50 uM after 48 hrs by annexin V/propidium iodide dual staining based flow cytometry; type: functional, cell-based
C2BBe1 [17] = assay: Cytotoxicity against human C2BBe1 cells assessed as reduction in cell proliferation after 24 hrs by sulforhodamine B assay; type: functional, cell-based; settings: C2BBe1, 24 h
C2BBe1 [18] = assay: Induction of apoptosis in human C2BBe1 cells assessed as early apoptotic cells at 50 uM after 48 hrs by annexin V/propidium iodide dual staining based flow cytometry; type: functional, cell-based
WiDr [19] = assay: Cytotoxicity against human WiDr cells assessed as reduction in cell proliferation after 72 hrs by sulforhodamine B assay; type: functional, cell-based
C2BBe1 [20] = assay: Cytotoxicity against human C2BBe1 cells assessed as reduction in cell viability at 50 uM after 48 hrs by annexin V/propidium iodide dual staining based flow cytometry relative to control; type: functional
C2BBe1 [21] = assay: Cytotoxicity against human C2BBe1 cells assessed as reduction in cell proliferation after 96 hrs by sulforhodamine B assay; type: functional, cell-based; settings: C2BBe1, 96 h
Neutrophil [22] = assay: Inhibition of phorbol myristate acetate-induced human neutrophils oxidative burst assessed as reduction in luminol oxidation preincubated for 5 mins followed by PMA addition measured after 15 mins by chemiluminescence assay; type: functional, cell-based
C2BBe1 [23] = assay: Cytotoxicity against human C2BBe1 cells assessed as reduction in cell viability at 22 uM after 48 hrs by annexin V/propidium iodide dual staining based flow cytometry relative to control; type: functional
WiDr [24] = assay: Induction of apoptosis in human WiDr cells assessed as decrease in mitochondrial membrane potential at 50 uM after 48 hrs by JC-1 staining based flow cytometry relative to control; type: functional
C2BBe1 [25] = assay: Cytotoxicity against human C2BBe1 cells assessed as reduction in cell proliferation after 48 hrs by sulforhodamine B assay; type: functional, cell-based; settings: C2BBe1, 48 h
C2BBe1 [26] = assay: Cytotoxicity against human C2BBe1 cells assessed as reduction in cell proliferation up to 200 uM by sulforhodamine B assay; type: functional, cell-based; settings: TDE = time-dependent effect
Neutrophil [27] = assay: Inhibition of phorbol myristate acetate-induced superoxide radical generation in human neutrophils at 100 uM preincubated for 5 mins followed by PMA addition by lucigenin chemiluminescence assay; type: functional
Neutrophil [28] = assay: Inhibition of phorbol myristate acetate-induced human neutrophils oxidative burst assessed as reduction in luminol oxidation up to 200 uM preincubated for 5 mins followed by PMA addition measured after 15 mins by chemiluminescence assay; type: functional

Structure (SMILES): O=C(O)/C=C/c1cc(O)c(O)c(O)c1
pIC50 (WiDr [1]): < 3.70 | pIC50 (C2BBe1 [6]): 4.23 | pIC50 (WiDr [7]): < 3.70 | pIC50 (WiDr [11]): 3.87 | Activity [15]: 98% | pIC50 (C2BBe1 [17]): 3.88 | pIC50 (WiDr [19]): 3.94 | Activity (C2BBe1 [26]): tde | pIC50 (C2BBe1 [21]): 4.41 | pIC50 (Neutrophil [22]): 4.72 | pIC50 (C2BBe1 [25]): 4.06

Structure (SMILES): CCCCCCNC(=O)/C=C/c1cc(O)c(O)c(O)c1
pIC50 (WiDr [1]): 4.15 | pIC50 (C2BBe1 [6]): 4.00 | pIC50 (WiDr [7]): 4.08 | pIC50 (WiDr [11]): 4.50 | Activity [15]: 98% | pIC50 (C2BBe1 [17]): 3.94 | pIC50 (WiDr [19]): 4.42 | Activity (C2BBe1 [26]): tde | pIC50 (C2BBe1 [21]): 4.29 | pIC50 (Neutrophil [22]): 4.44 | pIC50 (C2BBe1 [25]): 3.94

Structure (SMILES): O=C(O)/C=C/c1ccc(O)c(O)c1 [CAFFEIC ACID]
inhibition at 100 µM (Neutrophil [27]): 84% | inhibition (INH) (Neutrophil [28]): 44% | Activity [15]: 98%

Structure (SMILES): COc1cc(/C=C/C(=O)O)ccc1O [FERULATE]
pIC50 (WiDr [1]): < 3.70 | pIC50 (C2BBe1 [6]): < 3.70 | pIC50 (WiDr [7]): < 3.70 | pIC50 (WiDr [11]): < 3.70 | Activity [15]: 98% | pIC50 (C2BBe1 [17]): < 3.70 | pIC50 (WiDr [19]): < 3.70 | pIC50 (C2BBe1 [21]): < 3.70 | pIC50 (Neutrophil [22]): 3.70 | pIC50 (C2BBe1 [25]): < 3.70

The next lines start with results.

pIC50 (Neutrophil [22]): 5.18
Structure (SMILES): CCCCCCNC(=O)/C=C/c1ccc(O)c(O)c1 [CAFFEOYLHEXYLAMIDE]
pIC50 (WiDr [1]): 4.25 | Activity (WiDr [2]): 9.3% | Activity (WiDr [3]): 43.9% | Activity (WiDr [4]): Dose-dependent effect | Activity (C2BBe1 [5]): Dose-dependent effect | pIC50 (C2BBe1 [6]): 4.63 | pIC50 (WiDr [7]): 4.46 | Activity (C2BBe1 [8]): 8.8% | Activity (WiDr [9]): Active | fold change (FC) (WiDr [10]): 2.63 | pIC50 (WiDr [11]): 4.51 | Activity (WiDr [12]): 32.8% | Activity (WiDr [13]): Active | fold change (FC) (C2BBe1 [14]): 1.47 | Activity [15]: 98% | Activity (WiDr [16]): Active | pIC50 (C2BBe1 [17]): 4.43 | Activity (C2BBe1 [18]): Active | pIC50 (WiDr [19]): 4.45 | Activity (C2BBe1 [20]): 14.7% | pIC50 (C2BBe1 [21]): 4.65 | Activity (C2BBe1 [23]): 11.4% | fold change (FC) (WiDr [24]): 1.27 | pIC50 (C2BBe1 [25]): 4.66

pIC50 (Neutrophil [22]): 4.85
Structure (SMILES): CCCCCCNC(=O)/C=C/c1ccc(O)c(OC)c1 [FERULOYLHEXYLAMIDE]
pIC50 (WiDr [1]): 4.07 | pIC50 (C2BBe1 [6]): 4.05 | pIC50 (WiDr [7]): 4.04 | pIC50 (WiDr [11]): 4.08 | Activity [15]: 98% | pIC50 (C2BBe1 [17]): 3.88 | pIC50 (WiDr [19]): 4.11 | pIC50 (C2BBe1 [21]): 4.22 | pIC50 (C2BBe1 [25]): 3.91
